Patent US20230293479A1, “MEDICINAL COMPOUNDS AND NUTRITIONAL SUPPLEMENTS” (RECEPTOR HOLDINGS, INC., priority 2017, published 2023)

Tests used:
[1] = Example 4: cannabis/SNAC oral rat pharmacokinetic (PK) study; assay type: in vivo, rats; details: for Cmax increase over cannabis alone: oral gavage, 50 mg/kg cannabis extract with 500 mg/kg SNAC versus 25 mg/kg cannabis alone
Protocol: Example 4. Summary of cannabis/SNAC oral rat pharmacokinetic (PK) study.
Methods. Animals were dosed on Day 1 and a series of blood samples were collected over a period of 4 hours post dose for pharmacokinetic evaluation. Animals were euthanized following collection of their last blood sample.

study participants [2] = assay: Example 2: onset and duration of action of orally administered cannabis/SNAC composition at a low SNAC dose (100 mg); assay type: in vivo, human; details: oral cannabinoid formulation, 100 mg SNAC
Protocol: Example 2. […] This study was designed to assess the utility of SNAC in enabling a rapid-acting oral form of cannabis at a low dose.
Selection of Participants. Three study participants were recruited to ingest cannabis compositions and record the onset, duration, and intensity of cannabis-induced euphoria and/or dysphoria.
(§1) Formulations. The selected cannabis concentrate is commercially available and was provided to participants in an ethanol solution. The concentrate contains 8 mg THC per dose. It was selected because it contains a high percentage of THC, which provides a noticeable effect on user-reported “euphoria”.
(§2) Methods. For the Control experiment, each participant mixed the cannabis concentrate with 15 ml (one tablespoon) of aqueous ethanol, and immediately swallowed the mixture.
(§3) For both the Control experiment and the Test experiment, each participant recorded the time of dose administration, the time of onset of euphoria and/or dysphoria, and the observed level of euphoria and/or dysphoria in fifteen minute intervals for five hours following administration of the cannabis dose. Euphoria and dysphoria were reported using a scale value, in a range from 1-10.

study participants [3] = assay: Example 1: onset and duration of action of orally administered cannabis/SNAC composition (self-reported euphoria/dysphoria, 200 mg SNAC); assay type: in vivo, human; details: oral cannabinoid formulation, 200 mg SNAC
Protocol: Example 1. […] This study was designed to assess the utility of SNAC in enabling a rapid-acting oral form of cannabis.
Selection of Participants. Six study participants were recruited to ingest cannabis compositions and record the onset, duration, and intensity of cannabis-induced euphoria and/or dysphoria.
as §1, §2, §3

[4] = cited from earlier work

Row | Structure (SMILES) | Cmax increase over cannabis alone ([1]; rats) [fold] | mean maximum concentration Cmax ([1]; rats, single oral gavage, cannabis extract (THC/CBD 1:1) with SNAC, range over Groups 3-5 (25/250, 25/500, 50/500 mg extract/kg and mg SNAC/kg)) [ng/mL] | AUC0-Tlast ([1]; rats, single oral gavage, cannabis extract with SNAC, range over Groups 3-5) [ng·h/mL] | time to reach the mean maximum plasma concentration (Tmax) ([1]; rats, single oral gavage, cannabis extract with SNAC, range over Groups 3-5, post dose) [min] | effect of the absorption enhancer on the duration of action (study participants [2]) | effect on cannabinoid absorption ([1]; administered to rats by oral gavage) | effect of the absorption enhancer on the cannabinoid duration of action (study participants [3]) | duration of appetite stimulant effect ([4]; after administration) [h] | onset of action ([4]; after oral administration) [h] | peak effect ([4]; after oral administration) [h] | administered dose reaching the systemic circulation ([4]; oral, first pass hepatic metabolism and high lipid solubility)
1 | C=C(C)[C@@H]1CCC(C)=C[C@H]1c1c(O)cc(CCCCC)cc1O [CBD, cannabidiol] | 14.2 | 31.7 to 159.3 | 13.17 to 382.14 | 15 to 60 |  |  |  |  |  |  | 
2 | O=C([O-])CCCCCCCNC(=O)c1ccccc1O.[Na+] [SNAC, sodium N-[8-(2-hydroxybenzoyl)amino] caprylate] |  |  |  |  | no effect | enhances cannabinoid absorption | no effect |  |  |  | 
3 | CCCCCc1cc(O)c2c(c1)OC(C)(C)[C@@H]1CCC(C)=C[C@@H]21 [THC, (−)-trans-delta-9-tetrahydrocannabinol] | 6.9 |  |  |  |  |  |  | ≥ 24 | 0.5 to 1 | 2 to 4 | 10-20%
